# Results published in patent publication US20240352073A1, “BICYCLIC PEPTIDE INHIBITORS OF INTERLEUKIN-23 RECEPTOR” (Janssen Biotech, Inc., priority 2021, published 2024).
# pIC50: −log10 of the molar value. Like-named read-outs stand apart in the source and are kept apart here. Where a SMILES comes first, the peptide text is derived from it. Bridges are numbered along the chain shown (N, C = ends). [ ]: non-standard residue; d: D form. The star is where a group is joined. Me3N+(CH2)2O(CH2)2O(CH2)2CO = C[N+](C)(C)CCOCCOCCC(=O)*; Trp(7-Me) = Cc1cccc2c(C[C@H](N)C(=O)O)c[nH]c12; 2Nal = N[C@@H](Cc1ccc2ccccc2c1)C(=O)O; AEF = NCCOc1ccc(C[C@H](N)C(=O)O)cc1; 3Pal = N[C@@H](Cc1cccnc1)C(=O)O; Aad = N[C@@H](CCCC(=O)O)C(=O)O; Lys(Me) = CNCCCC[C@H](N)C(=O)O; Pen = CC(C)(S)[C@H](N)C(=O)O; Thp = NC1(C(=O)O)CCOCC1; X1 = C[N+](C)(C)CCCCC*; Sar = CNCC(=O)O
# Columns and labels:
# [1] = target: T1, IL-23R (Homo sapiens, UniProt Q5VWK5); assay: IL-23R reporter assay (HEK293, STAT-inducible luciferase); assay type: cell-based; conditions: Table 4; HEK293 cells with IL-23R, IL-12Rβ1 and STAT-inducible luciferase reporter, stimulated with IL-23
# T1 construct: host or cells: HEK293
# T1 sequence (Q5VWK5 24-629): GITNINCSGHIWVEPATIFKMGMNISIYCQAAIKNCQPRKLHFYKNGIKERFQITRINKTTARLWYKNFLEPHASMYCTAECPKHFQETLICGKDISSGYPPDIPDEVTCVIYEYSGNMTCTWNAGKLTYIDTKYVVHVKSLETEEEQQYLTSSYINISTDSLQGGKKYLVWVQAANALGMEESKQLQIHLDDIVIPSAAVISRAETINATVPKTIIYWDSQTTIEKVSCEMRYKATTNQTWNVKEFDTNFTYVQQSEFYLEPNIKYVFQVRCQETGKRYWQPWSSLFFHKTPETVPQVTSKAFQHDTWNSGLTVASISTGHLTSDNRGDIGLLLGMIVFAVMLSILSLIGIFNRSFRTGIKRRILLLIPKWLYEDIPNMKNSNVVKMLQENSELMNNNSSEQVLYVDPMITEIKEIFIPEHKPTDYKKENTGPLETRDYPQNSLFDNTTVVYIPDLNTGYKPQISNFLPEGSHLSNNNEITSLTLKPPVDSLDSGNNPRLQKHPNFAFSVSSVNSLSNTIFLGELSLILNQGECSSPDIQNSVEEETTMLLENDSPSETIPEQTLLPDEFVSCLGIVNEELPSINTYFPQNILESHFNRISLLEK
# Experimental: Example 4. IL-23R Reporter Assay
# Compounds were serially diluted in 100% (v/v) DMSO) and plated using an Echo acoustic dispenser (Labcyte) into 1536-well non-treated black assay plates (Corning #9146). […] After 5 h at 37° C., 5% CO2, 95% relative humidity, cells were placed at 20° C. and treated with BioGlo reagent (Promega) according to the manufacturer's instructions. Luminescence was measured on a Pherastar FSX (BMG LabTech). […] Where multiple measurements have been made the average is shown with the number of replicates indicated in parenthesis following the IC50 values.
# [2] = target: T2, peripheral blood mononuclear cells (PBMCs) stimulated with IL-23 (Homo sapiens, UniProt Q5VWK5); assay: PBMC pSTAT3 assay; assay type: cell-based; conditions: PBMCs from healthy donors; IL-23 5 ng/mL, 30 minutes; phosphorylated STAT3 in lysates
# T2 sequence (Q5VWK5 24-629): T1 sequence (Q5VWK5 24-629)
# Experimental: Cryopreserved peripheral blood mononuclear cells (PBMCs) from healthy donors were thawed and washed twice in ImmunoCult-XF T cell expansion medium (XF-TCEM) supplemented with CTL anti-aggregate wash. The cells were counted, resuspended at 2×10^5 cells per mL XF-TCEM supplemented with penicillin/streptomycin and 100 ng/mL […] (BioLegend, 579404), and cultured in tissue culture flasks coated with anti-CD3 (eBioscience, 16-0037-85 or BD Pharmingen, 555329) at 37° C. in 5% C02. On day 4 of culture, PBMCs were collected, washed twice in RPMI-1640 supplemented with 0.1% BSA (RPMI-BSA), and incubated in RPMI-BSA in upright tissue culture flasks for 4 hours at 37° C. in 5% C02. Following this ‘starvation,’ a total of 6×10^4 cells in 30 μL RPMI-BSA was transferred into each well of a 384-well plate pre-spotted with peptide or DMSO. The cells were incubated for 30 minutes prior to the addition of IL-23 at a final concentration of 5 ng/mL. The cells were stimulated with cytokine for 30 minutes at 37° C. in 5% C02, transferred onto ice for 10 minutes, and lysed. Cell lysates were stored at −80° C. until phosphorylated STAT3 was measured using the phospho-STAT panel kit (Meso Scale Discovery, K15202D). The results produced with PBMCs are provide in Table 5 below for several from Examples along with data from the IL23R Reporter Assays utilizing HEK293 cells described above. […]
# [3] = the molecule shown is the open-chain precursor, 20-membered ring
compound,measurement,setting,value
ac-Pen(1:3)-E(2:3)-T-Trp 7Me-Lys Ac-Pen(1:3)-Phe 4 2ae(2:3)-Nal-THP-Lys Ac—N—H-Sar-am,"ring closure, yield after HPLC","amide bond, 24-membered ring, PyBOP/DIEA, DMF, 1.0 mM",50%
6Ahx(2)-Abu(1)-N-T-W-Q-C(1)-AEF-2Nal-THP-E(2)-N-3Pya-Sar-CONH2,"ring closure, yield after HPLC","amide bond, 29-membered ring, PyBOP/DIEA, DMF, 5.0 mM",5%
McCO-k(2)-Pen(3)-O-T-W-Q-Pen(3)-AEF-2Nal-THP-E(2)-N-bAla-CONH2,"ring closure, yield after HPLC","amide bond, 29-membered ring, HATU/DIEA, then N2H4, DMF, […], 2 steps",49%
"CC(=O)NCCCC[C@@H]1NC(=O)[C@H](Cc2c[nH]c3c(C)cccc23)NC(=O)[C@H]([C@@H](C)O)NC(=O)[C@H](CC(N)=O)NC(=O)[C@H]2NC(=O)CCCCCCNC(=O)CC[C@@H](C(=O)N[C@@H](CC(N)=O)C(=O)N(C)[C@H](Cc3ccc(O)cc3)C(N)=O)NC(=O)C3(CCOCC3)NC(=O)[C@H](Cc3ccc4ccccc4c3)NC(=O)[C@H](Cc3ccc(OCCN)cc3)NC(=O)[C@@H](NC1=O)C(C)(C)SSC2(C)C [Example 25, [7AminoHeptanoicAcid]-[Pen]-N-T-[W(7-Me)]-[Lys(Ac)]-[Pen]-[Phe(4-(2-aminoethoxy))]-[2Nal]-[THP]-E-N-[(D)NMeTyr]-NH2]",pIC50,[1],6.08
CC(=O)N(C)CCCC[C@@H]1NC(=O)[C@H](Cc2c[nH]c3c(C)cccc23)NC(=O)[C@H]([C@@H](C)O)NC(=O)[C@H](CC(=O)N(C)C)NC(=O)[C@H]2NC(=O)[C@H](NC(=O)CCOCCOCC[N+](C)(C)C)CCCCNC(=O)CCC[C@@H](C(=O)N[C@@H](CC(N)=O)C(=O)N[C@@H](Cc3cccnc3)C(=O)N(C)CC(=O)N(C)C)NC(=O)C3(CCOCC3)NC(=O)[C@H](Cc3ccc4ccccc4c3)NC(=O)[C@H](Cc3ccc(OCCCCC[N+](C)(C)C)cc3)NC(=O)[C@@H](NC1=O)C(C)(C)SSC2(C)C [Compd 319] ({Me3N+(CH2)2O(CH2)2O(CH2)2CO}-[dK][Pen]D(NMe2)T[Trp(7-Me)][Lys(Me)](Ac)[Pen]Y(X1)[2Nal][Thp][Aad]N[3Pal][Sar]-NMe2; lactam 1-11; disulfide 2-7),pIC50,[2],11.10
H-7Ahp-Pen-Asn-Thr-7MeTrp-Lys(Ac)-Pen-AEF-2Nal-THP-Glu-Asn-3Pya-Sar-NH2,"ring closure, isolated yield","[3]; disulfide bond, I2/MeOH, MeCN/H2O 30:70, 1.0 mM",30.3%
"ac-Pen(1:3)-Dap(2:3)-T-Trp 7Me-Lvs Ac-Pen(1:3)-Phe 4 2ae(3:3)-Nal-THP-Lys Ac—N—H-Sar-am-PEG4DA(x,2:1,3:2)","ring closure, yield after HPLC","crosslinker bond, 39-membered ring, PEG4DA-NHS/DIEA, DMF, 1.0 mM",50%
"CC(=O)NCCCC[C@@H]1NC(=O)[C@H](Cc2c[nH]c3c(C)cccc23)NC(=O)[C@H]([C@@H](C)O)NC(=O)[C@H](CC(N)=O)NC(=O)[C@@H](NC(=O)CCCCCCN)C(C)(C)SSC(C)(C)[C@@H](C(=O)N[C@H]2Cc3ccc(cc3)OCCNC(=O)CC[C@@H](C(=O)N[C@@H](CC(N)=O)C(=O)N[C@@H](Cc3cccnc3)C(=O)N(C)CC(N)=O)NC(=O)C3(CCOCC3)NC(=O)[C@H](Cc3ccc4ccccc4c3)NC2=O)NC1=O [Example 137, [7AminoHeptanoicAcid]-[Pen]-N-T-[W(7-Me)]-[Lys(Ac)]-[Pen]-[Phe(4-(2-aminoethoxy))]-[2Nal]-[THP]-E-N-[3Pal]-[Sarc]-NH2]",pIC50,[1],6.37
H-6Ahx-Abu(4-Cl)-Asn-Thr-Trp-Gln-Cys-AEF-2Nal-THP-Glu-Asn-3Pya-Sar-NH2?,"ring closure, isolated yield","[3]; thioether bond, NaI/EDTA/Na2CO3, DMF, 1.07 mM",21%
"CC(=O)NCCCC[C@@H]1NC(=O)[C@H](Cc2c[nH]c3c(C)cccc23)NC(=O)[C@H]([C@@H](C)O)NC(=O)[C@H](CC(N)=O)NC(=O)[C@@H](NC(=O)CCCCCCN)C(C)(C)SSC(C)(C)[C@@H](C(=O)N[C@H]2Cc3ccc(cc3)OCCNC(=O)CC[C@@H](C(=O)N[C@@H](CC(N)=O)C(=O)NC3(C(N)=O)CCOCC3)NC(=O)C3(CCOCC3)NC(=O)[C@H](Cc3ccc4ccccc4c3)NC2=O)NC1=O [Example 139, [7AminoHeptanoic Acid]-[Pen]-N-T-[W(7-Me)]-[Lys(Ac)]-[Pen]-[Phe(4-(2-aminoethoxy))]-[2Nal]-[THP]-E-N-[THP]-NH2]",pIC50,[1],< 4.78
"CC(=O)NCCCC[C@@H]1NC(=O)[C@H](Cc2c[nH]c3ccccc23)NC(=O)[C@H]([C@@H](C)O)NC(=O)[C@H]2CCC(=O)NCCOc3ccc(cc3)C[C@@H](C(=O)N[C@@H](Cc3ccc4ccccc4c3)C(=O)NC3(C(=O)N[C@@H](CCCCNC(C)=O)C(=O)N[C@@H](CO)C(=O)N[C@@H](Cc4cccnc4)C(=O)N(C)CC(N)=O)CCOCC3)NC(=O)[C@@H](NC1=O)C(C)(C)SSC(C)(C)[C@H](NC(C)=O)C(=O)N2 [Example 4, Ac-[Pen]-E-T-W-[Lys(Ac)]-[Pen]-[Phe(4-(2-aminoethoxy))]-[2Nal]-[THP]-[Lys(Ac)]-S-[3Pal]-[Sarc]-NH2] (Ac-[Pen][dE]TWK(Ac)[Pen][AEF][2Nal][Thp]K(Ac)S[3Pal][Sar]-NH2; disulfide 1-6; lactam 2-7)",pIC50,[1],6.48
Ac-Pen-Glu-Thr-Trp_7Me-Lys(Ac)-Pen-Phe_4_2ae-2Nal-THP-Lys(Ac)-Asn-His-Sar-NH2,"ring closure, yield after HPLC","the molecule shown is the open-chain precursor, disulfide bond, 20-membered ring, I2/MeOH, MeCN/H2O 20:80, 1.0 mM, with chain assembly",30%
7Ahp(2)-Pen(3)-N-T-7MeW-K(Ac)-Pen(3)-AEF-2Nal-THP-E(2)-N-3Pya-Sar-CONH2,"ring closure, yield after HPLC","amide bond, 30-membered ring, PyBOP/DIEA, DMF, 5.0 mM",13%
McCO-Glu-Pen-N-T-7MeW-K(Ac)-Pen-AEF-2Nal-THP—K(Ac)—N-3Pva-Sar-CONH2,"ring closure, yield after HPLC","amide bond, 24-membered ring, HATU/DIEA, DMF, 0.24 mM, 2 steps",10%
CC(=O)N[C@H](CCCCN)C(=O)N[C@@H]1C(=O)N[C@@H](CCC(N)=O)C(=O)N[C@@H]([C@@H](C)O)C(=O)N[C@@H](Cc2c[nH]c3ccccc23)C(=O)N[C@@H](CCC(N)=O)C(=O)N[C@H](C(=O)N[C@@H](Cc2ccc(OCCNC(C)=C3C(=O)CC(C)(C)CC3=O)cc2)C(=O)N[C@@H](Cc2ccc3ccccc3c2)C(=O)NC2(C(=O)N[C@@H](CCC(=O)O)C(=O)N[C@@H](CC(N)=O)C(=O)NCCC(N)=O)CCOCC2)C(C)(C)SSC1(C)C,"ring closure, yield after HPLC","from Ac-dLys-Pen-Gln-Thr-Trp-Gln-Pen-AEF(Dde)-2Nal-THP-Glu-Asn-bAla-NH2?, disulfide bond, 20-membered ring, I2/AcOH, H2O/MeCN 1:1, 0.5 mM",48%
Ac-O2R-Pen-Gln-Thr-Trp-Gln-Pen-Phe[4-(2-aminoethoxy)]-2Nal-THP-O2R-Asn-bAla-NH2,"ring closure, yield after HPLC","the molecule shown is the open-chain precursor, disulfide bond, 20-membered ring, I2/AcOH, then Boc2O/DIEA, H2O/MeCN, 0.55 mM, 2 steps",40%
PEG2(2)-Pen(3)-N-T-7MeW-K(Ac)-Pen(3)-AEF-2Nal-THP-hE(2)-N-3Pya-Sar-CONH2,"ring closure, yield after HPLC","amide bond, 32-membered ring, HATU/DIEA, then N2H4, DMF, 4.8 mM, 2 steps",14%
H-PEG2-Pen-Asn-Thr-7MeTrp-Lys(Ac)-Pen-AEF(Dde)-2Nal-THP-hGlu-Asn-3Pya-Sar-NH2,"ring closure, isolated yield","[3]; disulfide bond, I2/MeOH, H2O/MeCN 1:1, 0.46 mM",32%
